In ChEMBL document CHEMBL1201862, “PubChem BioAssay data set” (2004):
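These data come from cells grown in 96-well plates and exposed to compound for 48 hours at five concentrations. GI50 = concentration required for 50% inhibition of growth.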 The source made the active and inactive calls. Cut-off read from the data, not from the text of the source: active = GI50 up to about 1.1 µM and inactive = higher.

Columns and labels:
Test in all cases: NCI anticancer screen, dose series, 48 h
MOLT-4 = test system: MOLT-4
NCI-H226 = test system: NCI-H226
HOP-62 = test system: HOP-62
OVCAR-3 = test system: OVCAR-3
CCRF-CEM = test system: CCRF-CEM
MDA-N = test system: MDA-N
UACC-62 = test system: UACC-62
KM12 = test system: KM12
NCI-H522 = test system: NCI-H522
LOX IMVI = test system: LOX IMVI
CAKI-1 = test system: CAKI-1
TK-10 = test system: TK-10
SN12C = test system: SN12C
786-0 = test system: 786-0
DU-145 = test system: DU-145
NCI/ADR-RES = test system: NCI/ADR-RES
NCI-H23 = test system: NCI-H23
MCF7 = test system: MCF7
RXF 393 = test system: RXF 393

Compound | GI50 (MOLT-4) | GI50 (NCI-H226) | GI50 (HOP-62) | GI50 (OVCAR-3) | GI50 (CCRF-CEM) | GI50 (MDA-N) | GI50 (UACC-62) | GI50 (KM12) | GI50 (NCI-H522) | GI50 (LOX IMVI) | GI50 (CAKI-1) | GI50 (TK-10) | GI50 (SN12C) | GI50 (786-0) | GI50 (DU-145) | GI50 (NCI/ADR-RES) | GI50 (NCI-H23) | GI50 (MCF7) | GI50 (RXF 393)
Cc1ccc2nc(CN(CCO)CCO)cc(=O)n2c1 | > 100 µM (inactive) | > 100 µM (inactive) | > 100 µM (inactive) | > 100 µM (inactive) | > 100 µM (inactive) | > 100 µM (inactive) | > 100 µM (inactive) | > 100 µM (inactive) | > 100 µM (inactive) | > 100 µM (inactive) | > 100 µM (inactive) | > 100 µM (inactive) | > 100 µM (inactive) | > 100 µM (inactive) | > 100 µM (inactive) | > 100 µM (inactive) | > 100 µM (inactive) | > 100 µM (inactive) | –
COC(=O)[C@](NC(=O)OCc1ccccc1)([C@@H](C)Sc1ccc(C)cc1)C(F)(F)F | 21 µM (inactive) | – | > 100 µM (inactive) | > 100 µM (inactive) | 13.6 µM (inactive) | 63.5 µM (inactive) | 39.2 µM (inactive) | 42.7 µM (inactive) | 25.1 µM (inactive) | 39 µM (inactive) | 57.5 µM (inactive) | – | – | 59.7 µM (inactive) | 24.7 µM (inactive) | 36 µM (inactive) | 19.7 µM (inactive) | 28.9 µM (inactive) | –
O=c1cccc(C2CC(CO)C3CCCCN3C2)[nH]1 (stereo not drawn) | > 100 µM (inactive) | > 100 µM (inactive) | – | > 100 µM (inactive) | > 100 µM (inactive) | > 100 µM (inactive) | > 100 µM (inactive) | > 100 µM (inactive) | > 100 µM (inactive) | > 100 µM (inactive) | > 100 µM (inactive) | > 100 µM (inactive) | > 100 µM (inactive) | > 100 µM (inactive) | > 100 µM (inactive) | > 100 µM (inactive) | > 100 µM (inactive) | > 100 µM (inactive) | –
CN(C)CCNC(=O)c1cccc2c(NC(CS)C(=O)O)c3ccccc3nc12 (stereo not drawn) | 3.17 µM (inactive) | 5.53 µM (inactive) | 5.32 µM (inactive) | 13 µM (inactive) | 6.37 µM (inactive) | 4.55 µM (inactive) | 21.6 µM (inactive) | 8.47 µM (inactive) | 4.19 µM (inactive) | 4.41 µM (inactive) | 5.75 µM (inactive) | 28.8 µM (inactive) | 2.6 µM (inactive) | 6.64 µM (inactive) | 10.5 µM (inactive) | 9.82 µM (inactive) | 8.22 µM (inactive) | 2.95 µM (inactive) | –
Nc1cc2nc(-c3ccccc3)cn2cn1 | > 100 µM (inactive) | > 100 µM (inactive) | > 100 µM (inactive) | > 100 µM (inactive) | 86.5 µM (inactive) | > 100 µM (inactive) | 54.6 µM (inactive) | 66.2 µM (inactive) | – | 84.5 µM (inactive) | 89.9 µM (inactive) | 50.5 µM (inactive) | 85.1 µM (inactive) | > 100 µM (inactive) | > 100 µM (inactive) | > 100 µM (inactive) | > 100 µM (inactive) | 70.1 µM (inactive) | 50.9 µM (inactive)
CCCCS(=O)(=O)CCC(N)P(=O)(O)O (stereo not drawn) | > 100 µM (inactive) | > 100 µM (inactive) | > 100 µM (inactive) | > 100 µM (inactive) | > 100 µM (inactive) | > 100 µM (inactive) | > 100 µM (inactive) | > 100 µM (inactive) | > 100 µM (inactive) | > 100 µM (inactive) | > 100 µM (inactive) | > 100 µM (inactive) | > 100 µM (inactive) | > 100 µM (inactive) | > 100 µM (inactive) | > 100 µM (inactive) | > 100 µM (inactive) | > 100 µM (inactive) | –
CCC(=O)/C(=C\I)c1ccccc1 | 2.23 µM (inactive) | 23.4 µM (inactive) | 21 µM (inactive) | 1.67 µM (inactive) | 2.74 µM (inactive) | 2.85 µM (inactive) | 2.49 µM (inactive) | 6.56 µM (inactive) | – | 1.27 µM (inactive) | – | 15 µM (inactive) | 2.16 µM (inactive) | 1.78 µM (inactive) | 7.19 µM (inactive) | 12.4 µM (inactive) | 3.71 µM (inactive) | 1.67 µM (inactive) | 1.52 µM (inactive)
CCO/C=C(\C(=O)OC)S(=O)(=O)c1ccc(C)cc1 | > 100 µM (inactive) | > 100 µM (inactive) | > 100 µM (inactive) | > 100 µM (inactive) | > 100 µM (inactive) | > 100 µM (inactive) | > 100 µM (inactive) | > 100 µM (inactive) | > 100 µM (inactive) | > 100 µM (inactive) | – | > 100 µM (inactive) | > 100 µM (inactive) | > 100 µM (inactive) | > 100 µM (inactive) | > 100 µM (inactive) | > 100 µM (inactive) | > 100 µM (inactive) | > 100 µM (inactive)
COC(=O)C1(C(=O)OC)N=C(C)OC1c1ccoc1 (stereo not drawn) | > 100 µM (inactive) | > 100 µM (inactive) | > 100 µM (inactive) | > 100 µM (inactive) | > 100 µM (inactive) | > 100 µM (inactive) | > 100 µM (inactive) | > 100 µM (inactive) | – | > 100 µM (inactive) | > 100 µM (inactive) | > 100 µM (inactive) | > 100 µM (inactive) | > 100 µM (inactive) | > 100 µM (inactive) | > 100 µM (inactive) | > 100 µM (inactive) | > 100 µM (inactive) | > 100 µM (inactive)
N#Cc1nn(C(N)=O)c(N)c1C#N | > 100 µM (inactive) | > 100 µM (inactive) | > 100 µM (inactive) | > 100 µM (inactive) | > 100 µM (inactive) | > 100 µM (inactive) | > 100 µM (inactive) | > 100 µM (inactive) | > 100 µM (inactive) | – | > 100 µM (inactive) | > 100 µM (inactive) | > 100 µM (inactive) | > 100 µM (inactive) | > 100 µM (inactive) | > 100 µM (inactive) | > 100 µM (inactive) | > 100 µM (inactive) | –
COc1nc(=O)n(C2CC(F)C(CO)O2)cc1C (stereo not drawn) | > 100 µM (inactive) | > 100 µM (inactive) | > 100 µM (inactive) | > 100 µM (inactive) | > 100 µM (inactive) | > 100 µM (inactive) | > 100 µM (inactive) | > 100 µM (inactive) | > 100 µM (inactive) | > 100 µM (inactive) | > 100 µM (inactive) | > 100 µM (inactive) | > 100 µM (inactive) | > 100 µM (inactive) | > 100 µM (inactive) | > 100 µM (inactive) | > 100 µM (inactive) | > 100 µM (inactive) | –
COc1cc(C2SCC(=O)N2c2ccc(-c3ccc(-n4c(-c5ccccc5)nc5ccccc5c4=O)cc3)cc2)ccc1O (stereo not drawn) | 37 µM (inactive) | 30.9 µM (inactive) | > 100 µM (inactive) | 61.5 µM (inactive) | 42.4 µM (inactive) | 80 µM (inactive) | 21.8 µM (inactive) | 48.2 µM (inactive) | 35.1 µM (inactive) | 27.2 µM (inactive) | > 100 µM (inactive) | > 100 µM (inactive) | > 100 µM (inactive) | 29.6 µM (inactive) | > 100 µM (inactive) | 13.6 µM (inactive) | > 100 µM (inactive) | 59.4 µM (inactive) | –
C=CCN1C(=O)CC2[C@@H]3CCc4cc(O)ccc4C3CC[C@]2(C)C1=O (stereo partly drawn) | > 10 µM (inactive) | > 10 µM (inactive) | > 10 µM (inactive) | > 10 µM (inactive) | > 10 µM (inactive) | > 10 µM (inactive) | > 10 µM (inactive) | > 10 µM (inactive) | – | > 10 µM (inactive) | > 10 µM (inactive) | > 10 µM (inactive) | > 10 µM (inactive) | > 10 µM (inactive) | > 10 µM (inactive) | > 10 µM (inactive) | > 10 µM (inactive) | > 10 µM (inactive) | > 10 µM (inactive)
Oc1ccc(O)c(Sc2nnc(CCCCCCCCc3nnc(Sc4cc(O)ccc4O)o3)o2)c1 | 49.5 µM (inactive) | > 100 µM (inactive) | > 100 µM (inactive) | – | – | 17.3 µM (inactive) | 47.5 µM (inactive) | 26.7 µM (inactive) | 23.8 µM (inactive) | – | 28.8 µM (inactive) | > 100 µM (inactive) | 90.6 µM (inactive) | 19 µM (inactive) | > 100 µM (inactive) | > 100 µM (inactive) | > 100 µM (inactive) | 33.8 µM (inactive) | –
C=CC1(c2ccc(OC)cc2)OCCCO1 | > 100 µM (inactive) | > 100 µM (inactive) | > 100 µM (inactive) | > 100 µM (inactive) | > 100 µM (inactive) | > 100 µM (inactive) | > 100 µM (inactive) | > 100 µM (inactive) | > 100 µM (inactive) | > 100 µM (inactive) | – | > 100 µM (inactive) | > 100 µM (inactive) | > 100 µM (inactive) | > 100 µM (inactive) | > 100 µM (inactive) | > 100 µM (inactive) | > 100 µM (inactive) | > 100 µM (inactive)
C=C(C)[C@@]12C[C@H](OC(=O)[C@H](O)[C@@H](NC(=O)c3ccccc3)c3ccccc3)C(C)=C1[C@@H](OC(C)=O)C(=O)[C@@]1(C)C([C@@H]2OC(=O)c2cc(F)cc(F)c2)C2(OC(C)=O)CO[C@@H]2C[C@@H]1O (stereo partly drawn) | 0.0428 µM (active) | 0.883 µM (active) | 0.123 µM (active) | 0.122 µM (active) | 0.0367 µM (active) | 0.0133 µM (active) | 0.076 µM (active) | – | – | 0.0791 µM (active) | 0.525 µM (active) | 0.3 µM (active) | 0.144 µM (active) | 0.0853 µM (active) | 0.267 µM (active) | 1.57 µM (inactive) | 0.152 µM (active) | 0.029 µM (active) | 0.0578 µM (active)
